# Experimental data: US10023519B2, “Cyclobutane containing carboxylic acid GPR120 modulators” (BRISTOL-MYERS SQUIBB COMPANY, priority 2014, dated 2018)
# Molecular target: human GPR120 (Homo sapiens (Human), UniProt Q5NUL3)
# Experiment: GPR120 pERK AlphaScreen SureFire Assay (human)
# Assay type: cell-based
# Settings: CHO cells stably transfected with short form of human GPR120
# From the text: GPR120 activity was monitored by measuring phosphorylation of ERK (pERK), since G protein receptors are known to activate the ERK signaling cascade either directly and/or through recruitment of arrestin that serves as a scaffold for downstream signaling events.
# GPR120 pERK AlphaScreen SureFire Assay
# The human and mouse GPR120-mediated intracellular phosphorylated ERK assays were established using CHOA12 cells stably transfected with the short form of human or mouse GPR120 receptor. […] Cells were cryo preserved at a concentration of 2×10^7 cells/mL, in 90% Charcoal/Dextran FBS and 10% DMSO, and frozen in liquid nitrogen at a low passage number.
# The flasks were placed in a tissue culture incubator overnight (37° C., 5% CO2). […] The next day, cells were serum starved in 30 μL of F-12 media without any serum or antibiotics for 2 hours at 37° C.
# Cells were then stimulated with 50 nL of compound dilutions using ECHO liquid handler for 7 minutes at 37° C.
# (§1) The lysis buffer was diluted 5-fold with water before use. […] The SureFire assay reagent mix was prepared by mixing 60 parts Reaction Buffer, 10 parts Activation Buffer, 1 part Donor Beads, 1 part Acceptor Beads (Perkin Elmer Cat. #TGRES10K). 3.5 μL/well of this reagent mix was manually added to the proxiplate with a multichannel pipettor. Plates were spun down at 1000 rpm for 2 minutes, followed by light-protected incubation at room temperature for 2 hours. The plates were read on the Alpha-technology compatible Envision multilabel plate reader using AlphaScreen protocol according to manufacturer's specifications. The agonist effect of compounds was expressed as 100× (average sample−average blank)/(average total−average blank) where sample is the luminescence activity in the presence of test compound, blank is equal to the luminescence activity in the presence of DMSO control and the total is signal induced by 50 μM linolenic acid as reference compound. Activation data for the test compound over a range of concentrations was plotted as percentage activation of the test compound (100%=maximum response). After correcting for background, EC50 values were determined.
# The human and mouse GPR120-mediated intracellular phosphorylated ERK assays were also established using CHO-K1 cells stably transfected with the short form of human or mouse GPR120 receptor. […] Cells were cryo preserved at a concentration of 3×10^6 cells/mL, in 70% F-12, 20% Charcoal/Dextran FBS and 10% DMSO, and frozen in liquid nitrogen at a low passage number.
# The flasks were placed in a tissue culture incubator overnight (37° C., 5% CO2).
# Cells were then stimulated with 40 nL of compound dilutions using ECHO liquid handler for 7 minutes at 37° C.
# as §1, with “compound.” for “compound. Activation data for the test compound over a range of concentrations was plotted as percentage activation of the test compound (100%=maximum response). After correcting for background, EC50 values were determined.”
# Activation data for the test compound over a range of concentrations was plotted as percentage activation of the test compound (100%=maximum response). After correcting for background, EC50 values were determined.
# Chain of human GPR120 (Q5NUL3 whole entry): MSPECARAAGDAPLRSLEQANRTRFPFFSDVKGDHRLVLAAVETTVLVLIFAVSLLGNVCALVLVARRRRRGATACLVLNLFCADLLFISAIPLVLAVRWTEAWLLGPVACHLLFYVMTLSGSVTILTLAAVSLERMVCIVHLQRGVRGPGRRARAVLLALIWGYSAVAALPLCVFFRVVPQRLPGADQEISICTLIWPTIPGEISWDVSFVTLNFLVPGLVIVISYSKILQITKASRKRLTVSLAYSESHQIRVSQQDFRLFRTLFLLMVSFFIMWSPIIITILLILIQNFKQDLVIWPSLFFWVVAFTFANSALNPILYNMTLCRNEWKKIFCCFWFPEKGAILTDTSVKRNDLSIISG
row,Molecule,EC50 [nM]
1,"COc1ccc(OC(F)(F)F)cc1-c1ccc([C@H]2C[C@@H](OCC(=O)O)C2)cc1 [Example 16, Cis-2-(3-(2′-methoxy-5′-(trifluoromethoxy)-[1,1′-biphenyl]-4-yl)cyclobutoxy)acetic acid]",480
2,"O=C(O)CO[C@H]1C[C@@H](c2ccc(-c3cc(OC4CCCOC4)ccc3F)cc2)C1 (stereo partly drawn) [Example 30, Cis2-(3-(2′-fluoro-5′-((tetrahydro-2H-pyran-3-yl)oxy)-[1,1′-biphenyl]-4-yl)cyclobutoxy)acetic acid]",1400
3,"Cc1nc(-c2ccc(F)c(-c3ccc([C@H]4C[C@@H](OCC(=O)O)C4)cc3)c2)no1 [Example 21, Cis-2-(3-(2′-Fluoro-5′-(5-methyl-1,2,4-oxadiazol-3-yl)-[1,1′-biphenyl]-4-yl)cyclobutoxy)acetic acid]",550
4,"O=C(O)CO[C@H]1C[C@@H](c2ccc(-c3cccc(Cc4ccccc4)c3)cc2)C1 [Example 9, Cis-2-(3-(3′-benzyl-[1,1′-biphenyl]-4-yl)cyclobutoxy)acetic acid]",1590
5,"CC(C)Oc1cc(Cl)cc(-c2ccc([C@H]3C[C@@H](OCC(=O)O)C3)cc2)c1 [Example 11, Cis-2-(3-(3′-chloro-5′-isopropoxy-[1,1′-biphenyl]-4-yl)cyclobutoxy) acetic acid]",560
6,"Cc1ccc(Oc2ccc(F)c(-c3ccc([C@H]4C[C@@H](OCC(=O)O)C4)cc3)c2)cn1 [Example 20, Cis-2-(3-(2′-fluoro-5′-((6-methylpyridin-3-yl)oxy)-[1,1′-biphenyl]-4-yl)cyclobutoxy) acetic acid]",270
7,"COc1cc(Cl)cc(-c2ccc([C@H]3C[C@@H](OCC(=O)O)C3)cc2)c1 [Example 6, Cis-2-(3-(3′-chloro-5′-methoxy-[1,1′-biphenyl]-4-yl)cyclobutoxy)acetic acid]",880
8,"CC(C)Oc1ccc(F)c(-c2ccc(CC3CC(C(=O)O)C3)cc2)c1 (single isomer, unassigned) [Example 49, 3-((2′-Fluoro-5′-isopropoxy-[1,1′-biphenyl]-4-yl)methyl)cyclobutanecarboxylic acid]",500
9,"O=C(O)CO[C@H]1C[C@@H](c2ccc(-c3cc(Oc4cccc(F)c4)cc(F)c3F)cc2)C1 [Example 36, Cis-2-(3-(2′,3′-difluoro-5′-(3-fluorophenoxy)-[1,1′-biphenyl]-4-yl)cyclobutoxy) acetic acid]",130
10,"Cis-2-(3-(2′,3′-difluoro- 5′-(3- fluorophenoxy)-[1,1′- biphenyl]-4-yl)cyclobutoxy) acetic acid [Example 37]",590
11,"O=C(O)COCC1CC(OCc2cccc(Oc3ccccc3)c2)C1 (centres unmarked) [Example 54, 2-((3-(3-Phenoxybenzyloxy)cyclobutyl)methoxy)acetic acid]",3850
12,"Cc1ccc(Oc2ccc(F)c(-c3ccc([C@H]4C[C@@H](OCC(=O)O)C4)cc3)c2)nn1 [Example 29, Cis-2-(3-(2′-fluoro-5′-((6-methylpyridazin-3-yl)oxy)-[1,1′-biphenyl]-4-yl)cyclobutoxy)acetic acid]",5000
13,"CC(C)Oc1cc(F)cc(-c2ccc([C@H]3C[C@@H](OCC(=O)O)C3)cc2)c1 [Example 18, Cis-2-(3-(3′-fluoro-5′-isopropoxy-[1,1′-biphenyl]-4-yl)cyclobutoxy) acetic acid]",3130
14,"O=C(O)CO[C@H]1C[C@@H](c2ccc(-c3cc(OC(F)(F)F)ccc3F)cc2)C1 [Example 17, Cis-2-(3-(2′-fluoro-5′-(trifluoromethoxy)-[1,1′-biphenyl]-4-yl)cyclobutoxy)acetic acid]",550
15,"O=C(O)CO[C@H]1C[C@@H](c2ccc(-c3cc(Oc4cccc(F)c4)ccc3F)cc2)C1 [Example 32, Cis-2-(3-(2′-fluoro-5′-(3-fluorophenoxy)-[1,1′-biphenyl]-4-yl)cyclobutoxy)acetic acid]",230
16,"O=C(O)CO[C@H]1C[C@@H](c2ccc(-c3cccc(C(=O)c4ccccc4)c3)cc2)C1 [Example 14, Cis-2-(3-(3′-benzoyl-[1,1′-biphenyl]-4-yl)cyclobutoxy) acetic acid]",830
17,"O=C(O)CO[C@H]1C[C@@H](c2ccc(-c3cc(Oc4ccccn4)ccc3F)cc2)C1 [Example 26, Cis-2-(3-(2′-fluoro-5′-(pyridin-2-yloxy)-[1,1′-biphenyl]-4-yl)cyclobutoxy) acetic acid]",490
18,"CC(C)Oc1ccc(F)c(-c2ccc(CC3CC(C(=O)O)C3)cc2)c1 (single isomer, unassigned) [Example 48, 3-((2′-Fluoro-5′-isopropoxy-[1,1′-biphenyl]-4-yl)methyl)cyclobutanecarboxylic acid]",790
19,"O=C(O)[C@H]1C[C@@H]1COCC1CC(c2cccc(Oc3ccccc3)c2)C1 (relative stereo) [Example 63, Trans-2-(((3-(3-phenoxyphenyl)cyclobutyl)methoxy)methyl)cyclopropanecarboxylic acid]",1260

# Continued, values first:
row,EC50 [nM],Molecule
1,650,"CC(C)Oc1ccc(F)c(-c2ccc(CC3CC(CC(=O)O)C3)cc2)c1 (centres unmarked) [Example 50, 2-(3-((2′-Fluoro-5′-isopropoxy-[1,1′-biphenyl]-4-yl)methyl)cyclobutyl)acetic acid]"
2,940,"CC(C)Oc1ccc(F)c(-c2ccc(C[C@H]3C[C@H](CC(=O)O)C3)cc2)c1 [Example 52, 2-(Trans-3-((2′-fluoro-5′-isopropoxy-[1,1′-biphenyl]-4-yl)methyl)cyclobutyl)acetic acid]"
3,110,"O=C(O)C[C@H]1C[C@H](Oc2ccc(-c3cc(Oc4ccccc4)ccc3F)cc2)C1 [Example 66, Trans-2-(3-((2′-fluoro-5′-phenoxy-[1,1′-biphenyl]-4-yl)oxy)cyclobutyl)acetic acid]"
4,420,"O=C(O)COCCC[C@H]1C[C@@H](c2cccc(Oc3ccccc3)c2)C1 [Example 58, 2-(3-(Cis-3-(3-phenoxyphenyl)cyclobutyl)propoxy)acetic acid]"
5,700,"O=C(O)COCCC1CC(OCc2cccc(Oc3ccccc3)c2)C1 (centres unmarked) [Example 57, 2-(2-(3-(3-Phenoxybenzyloxy)cyclobutyl)ethoxy)acetic acid]"
6,170,"O=C(O)COCCC[C@H]1C[C@H](c2cccc(Oc3ccccc3)c2)C1 [Example 56, 2-(3-(Trans-3-(3-phenoxyphenyl)cyclobutyl)propoxy)acetic acid]"
7,32000,"CC(C)Oc1ccc(F)c(-c2ccc(C3CC4(C3)CC4C(=O)O)cc2)c1 (single isomer, unassigned) [Example 41, 5-(2′-Fluoro-5′-isopropoxy-[1,1′-biphenyl]-4-yl)spiro[2.3]hexane-1-carboxylic acid]"
8,2800,"COC1(c2cccc(Oc3ccccc3)c2)CC(CCCOCC(=O)O)C1 (centres unmarked) [Example 68, 2-(3-(3-Methoxy-3-(3-phenoxyphenyl)cyclobutyl)propoxy)acetic acid]"
9,2270,"O=C(O)[C@H]1C[C@@H](Oc2ccc(-c3cc(Oc4ccccc4)ccc3F)cc2)C1 [Example 65, Cis-3-((2′-fluoro-5′-phenoxy-[1,1′-biphenyl]-4-yl)oxy)cyclobutanecarboxylic acid]"
10,650,"CC(C)Oc1ccc(F)c(-c2ccc([C@H]3C[C@@H](CCC(=O)O)C3)cc2)c1 [Example 46, Cis-3-(3-(2′-fluoro-5′-isopropoxy-[1,1′-biphenyl]-4-yl)cyclobutyl)propanoic acid]"
11,150,"C[C@]1(CCCOCC(=O)O)C[C@H](c2cccc(Oc3ccccc3)c2)C1 [Example 61, 2-(3-(Trans-1-methyl-3-(3-phenoxyphenyl)cyclobutyl)propoxy)acetic acid]"
12,740,"C[C@]1(CCCOCC(=O)O)C[C@@H](c2cccc(Oc3ccccc3)c2)C1 [Example 60, 2-(3-(Cis-1-methyl-3-(3-phenoxyphenyl)cyclobutyl)propoxy)acetic acid]"
13,140,"CC(C)Oc1ccc(F)c(-c2ccc([C@H]3C[C@H](CC(=O)O)C3)cc2)c1 [Example 44, 2-(Trans-3-(2′-fluoro-5′-isopropoxy-[1,1′-biphenyl]-4-yl)cyclobutyl)acetic acid]"
